The NIST ThermoML archive (doi:10.1016/j.jct.2013.03.001)
Numbers after ± are expanded uncertainties.

Experiments:
[1] = Molar enthalpy of transition or fusion; conditions: Crystal; DSC
[2] = Crystal; DTA
[3] = molar enthalpy of vaporization or sublimation; conditions: 298.15 K; Crystal; Static calorimetry

| Molar enthalpy of transition or fusion [1] [kJ/mol] | Normal melting temperature [2] [°C] | molar enthalpy [3] [kJ/mol] | Structure (SMILES) |
| --- | --- | --- | --- |
| 18.4 ± 0.47 | 128.46 ± 0.39 | 91.7 ± 1.3 | O=c1cccc(Cl)[nH]1 [2(1H)-pyridinone, 6-chloro-] |
| 26.8 ± 0.62 | 169.99 ± 0.41 | 89.2 ± 1.8 | Oc1cccnc1Cl [2-chloro-3-hydroxypyridine] |
| 21.6 ± 0.58 | 159.76 ± 0.41 | 99.5 ± 2 | Oc1cncc(Cl)c1 [3-chloro-5-hydroxypyridine] |
